Test system: not listed separately
Assay: Intrinsic clearance in human liver microsomes
Format: ADME, Microsome
Conditions: liver microsomes; call rule not given here

| SMILES | microsomal CLint [µL/min/mg] |
| --- | --- |
| COc1ccc(C2CCc3nc[nH]c3C2)cc1 (centres undefined) | 16 |
| COc1cccc(C2Cc3nccn3C2)c1 (centres undefined) | 23 |
| COCc1ccccc1C1CCc2nc[nH]c2C1 (stereo in doubt; 16) | < 7 |
| CS(=O)(=O)Nc1c(Cl)ccc2c1CCCC2c1ncc[nH]1 (centres undefined) | < 7 |
| COc1ccc(C2Cc3nccn3C2)cc1 (centres undefined) | 30 |

More lines, now with the values ahead:

| microsomal CLint [µL/min/mg] | SMILES |
| --- | --- |
| 37 | COc1ccccc1C1Cc2nccn2C1 (centres undefined) |
| 18 | Clc1ccccc1C1Cc2nccn2C1 (centres undefined) |
| < 7 | N#Cc1ccccc1C1Cc2nccn2C1 (centres undefined) |

Biological target: T1, Alpha-1B adrenergic receptor (Homo sapiens) (UniProt P35368)
T1 sequence (whole entry): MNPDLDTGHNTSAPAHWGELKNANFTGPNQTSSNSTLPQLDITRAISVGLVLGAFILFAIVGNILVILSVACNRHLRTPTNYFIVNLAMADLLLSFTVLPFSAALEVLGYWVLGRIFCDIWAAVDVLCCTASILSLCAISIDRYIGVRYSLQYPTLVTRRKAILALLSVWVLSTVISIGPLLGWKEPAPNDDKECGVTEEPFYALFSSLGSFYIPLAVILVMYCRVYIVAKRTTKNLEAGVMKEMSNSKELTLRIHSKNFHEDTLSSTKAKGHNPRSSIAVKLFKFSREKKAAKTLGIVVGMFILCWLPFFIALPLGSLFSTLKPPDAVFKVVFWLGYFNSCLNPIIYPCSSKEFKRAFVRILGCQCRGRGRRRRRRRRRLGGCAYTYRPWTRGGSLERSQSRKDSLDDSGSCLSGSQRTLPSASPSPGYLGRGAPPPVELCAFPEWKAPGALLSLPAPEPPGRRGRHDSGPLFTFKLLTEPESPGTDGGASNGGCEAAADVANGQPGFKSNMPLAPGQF
Assay: Agonist activity at human cloned adrenergic Alpha-1B receptor expressed in CHO cells assessed as calcium mobilization by FLIPR relative to phenylephrine
Format: functional, cell-based
Conditions: not given

| Emax [%] | SMILES |
| --- | --- |
| 20 | Clc1ccccc1C1Cc2nccn2C1 (centres undefined) |

Test system: Rattus norvegicus
Assay: Volume of distribution at steady state in rat at 0.3 mg/kg, […]
Format: ADME, organism-based
Design: dose 0.3 mg/kg
Conditions: in vivo

| Vdss [L/kg] | SMILES |
| --- | --- |
| 1.5 | N#Cc1ccccc1C1Cc2nccn2C1 (centres undefined) |

Test system: not listed separately
Assay: Clearance in rat at 0.3 mg/kg, […]
Format: ADME, organism-based
Design: dose 0.3 mg/kg
Conditions: in vivo

| CL/F [L/h/kg] | SMILES |
| --- | --- |
| 2.04 | N#Cc1ccccc1C1Cc2nccn2C1 (centres undefined) |

Biological target: Voltage-gated inwardly rectifying potassium channel KCNH2 (Homo sapiens, UniProt Q12809)
Sequence (Q12809 whole entry): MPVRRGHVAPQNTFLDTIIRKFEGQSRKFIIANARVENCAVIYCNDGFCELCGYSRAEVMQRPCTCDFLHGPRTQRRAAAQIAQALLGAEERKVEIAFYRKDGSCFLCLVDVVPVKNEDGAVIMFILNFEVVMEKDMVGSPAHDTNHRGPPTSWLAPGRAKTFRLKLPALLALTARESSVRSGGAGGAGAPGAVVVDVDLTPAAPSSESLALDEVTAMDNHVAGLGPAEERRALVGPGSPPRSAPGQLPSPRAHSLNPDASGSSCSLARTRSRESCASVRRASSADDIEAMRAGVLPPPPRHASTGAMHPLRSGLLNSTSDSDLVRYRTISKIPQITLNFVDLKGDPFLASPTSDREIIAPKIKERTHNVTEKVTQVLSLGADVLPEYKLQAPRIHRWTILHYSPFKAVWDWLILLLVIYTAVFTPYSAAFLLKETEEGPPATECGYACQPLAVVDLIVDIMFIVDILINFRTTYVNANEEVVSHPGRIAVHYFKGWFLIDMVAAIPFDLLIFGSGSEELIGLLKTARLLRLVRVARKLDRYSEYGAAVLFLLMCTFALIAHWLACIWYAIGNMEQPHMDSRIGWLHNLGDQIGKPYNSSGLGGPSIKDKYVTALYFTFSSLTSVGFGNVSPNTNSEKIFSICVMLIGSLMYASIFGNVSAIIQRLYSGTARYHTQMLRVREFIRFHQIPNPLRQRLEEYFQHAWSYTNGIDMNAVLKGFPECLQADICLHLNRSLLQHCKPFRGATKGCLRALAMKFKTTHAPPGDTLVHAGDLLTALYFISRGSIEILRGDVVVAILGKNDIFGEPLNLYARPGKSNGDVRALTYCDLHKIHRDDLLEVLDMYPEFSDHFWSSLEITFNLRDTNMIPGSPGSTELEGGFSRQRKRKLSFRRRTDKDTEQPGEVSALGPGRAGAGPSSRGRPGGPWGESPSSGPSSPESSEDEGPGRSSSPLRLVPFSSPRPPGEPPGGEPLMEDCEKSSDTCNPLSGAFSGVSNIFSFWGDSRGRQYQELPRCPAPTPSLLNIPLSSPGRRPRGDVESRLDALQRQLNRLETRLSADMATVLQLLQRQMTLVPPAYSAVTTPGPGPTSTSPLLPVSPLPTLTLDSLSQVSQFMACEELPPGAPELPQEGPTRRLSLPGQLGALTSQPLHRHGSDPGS
Assay: Inhibition of human ERG potassium channel up to 22 uM
Conditions: not given

| SMILES | Activity |
| --- | --- |
| N#Cc1ccccc1C1Cc2nccn2C1 (centres undefined) | Not Active |

Biological target: T2, Alpha-1D adrenergic receptor (Homo sapiens, UniProt P25100)
T2 sequence (P25100 whole entry): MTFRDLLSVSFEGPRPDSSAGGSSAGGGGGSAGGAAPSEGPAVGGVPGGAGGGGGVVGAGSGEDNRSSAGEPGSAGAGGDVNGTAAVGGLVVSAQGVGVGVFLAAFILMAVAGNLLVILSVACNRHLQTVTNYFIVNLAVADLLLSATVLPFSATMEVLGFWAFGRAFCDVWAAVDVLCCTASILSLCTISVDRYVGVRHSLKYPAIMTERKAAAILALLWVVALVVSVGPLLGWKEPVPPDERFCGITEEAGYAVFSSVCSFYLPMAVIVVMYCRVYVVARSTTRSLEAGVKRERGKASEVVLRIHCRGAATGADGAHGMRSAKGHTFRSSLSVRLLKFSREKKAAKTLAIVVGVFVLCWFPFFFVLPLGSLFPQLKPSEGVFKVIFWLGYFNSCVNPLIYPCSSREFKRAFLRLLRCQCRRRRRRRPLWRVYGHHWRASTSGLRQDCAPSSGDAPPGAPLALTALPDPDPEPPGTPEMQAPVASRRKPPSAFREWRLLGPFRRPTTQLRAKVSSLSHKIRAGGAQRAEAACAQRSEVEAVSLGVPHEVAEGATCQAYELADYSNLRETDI
Assay: Agonist activity at human cloned adrenergic Alpha-1D receptor expressed in CHO cells assessed as calcium mobilization by FLIPR
Format: functional, cell-based
Conditions: not given

| SMILES | EC50 [µM] |
| --- | --- |
| COc1ccc(C2CCc3nc[nH]c3C2)cc1 (centres undefined) | > 10 |
| COc1cccc(C2Cc3nccn3C2)c1 (centres undefined) | > 10 |
| COCc1ccccc1C1CCc2nc[nH]c2C1 (stereo in doubt; 16) | > 10 |

Continued, values first:

| EC50 [µM] | SMILES |
| --- | --- |
| 0.364 | Clc1ccccc1C1Cc2nccn2C1 (centres undefined) |
| > 10 | N#Cc1ccccc1C1Cc2nccn2C1 (centres undefined) |

Biological target: T3, Alpha-1A adrenergic receptor (Homo sapiens, UniProt P35348)
T3 sequence (P35348 whole entry): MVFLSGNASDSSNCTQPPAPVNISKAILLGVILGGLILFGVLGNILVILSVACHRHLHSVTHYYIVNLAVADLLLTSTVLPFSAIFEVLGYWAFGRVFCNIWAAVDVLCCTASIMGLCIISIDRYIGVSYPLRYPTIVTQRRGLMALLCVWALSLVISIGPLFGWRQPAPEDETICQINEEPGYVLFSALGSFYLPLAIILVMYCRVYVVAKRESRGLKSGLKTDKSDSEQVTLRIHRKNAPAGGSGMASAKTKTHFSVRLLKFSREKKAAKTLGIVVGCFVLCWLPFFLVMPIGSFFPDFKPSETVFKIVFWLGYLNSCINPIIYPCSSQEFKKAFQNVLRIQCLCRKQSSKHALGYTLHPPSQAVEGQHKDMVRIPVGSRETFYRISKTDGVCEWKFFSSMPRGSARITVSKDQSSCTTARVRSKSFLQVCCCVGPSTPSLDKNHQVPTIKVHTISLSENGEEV
Assay: Agonist activity at human cloned adrenergic alpha1A receptor expressed in CHO cells assessed as calcium mobilization by FLIPR
Format: functional, cell-based
Conditions: not given

| SMILES | EC50 [µM] |
| --- | --- |
| COc1ccc(C2CCc3nc[nH]c3C2)cc1 (centres undefined) | > 10 |
| COc1cccc(C2Cc3nccn3C2)c1 (centres undefined) | 0.578 |
| COCc1ccccc1C1CCc2nc[nH]c2C1 (stereo in doubt; 16) | 0.076 |
| COc1ccc(C2Cc3nccn3C2)cc1 (centres undefined) | 0.939 |

Results, then the compound that gave them:

| EC50 [µM] | SMILES |
| --- | --- |
| 0.022 | COc1ccccc1C1Cc2nccn2C1 (centres undefined) |
| 0.019 | Clc1ccccc1C1Cc2nccn2C1 (centres undefined) |
| 0.051 | N#Cc1ccccc1C1Cc2nccn2C1 (centres undefined) |

Biological target: T4, Alpha-1D adrenergic receptor (Homo sapiens) (UniProt P25100)
T4 sequence (whole entry): T2 sequence (P25100 whole entry)
Assay: Agonist activity at human cloned adrenergic Alpha-1D receptor expressed in CHO cells assessed as calcium mobilization by FLIPR relative to phenylephrine
Format: functional, cell-based
Conditions: not given

| Emax [%] | SMILES |
| --- | --- |
| 50 | Clc1ccccc1C1Cc2nccn2C1 (centres undefined) |

Test system: not listed separately
Assay: Solubility in buffer solution at pH 1 to 9
Format: physicochemical
Conditions: not given

| solubility [mg/mL] | SMILES |
| --- | --- |
| > 0.5 | N#Cc1ccccc1C1Cc2nccn2C1 (centres undefined) |

Test system: not listed separately
Assay: Partition coefficient, log D at pH 7.4
Conditions: octanol/water, pH 7.4, logD

| SMILES | logD |
| --- | --- |
| COc1ccc(C2CCc3nc[nH]c3C2)cc1 (centres undefined) | 2.6 |
| COc1cccc(C2Cc3nccn3C2)c1 (centres undefined) | 2 |
| COCc1ccccc1C1CCc2nc[nH]c2C1 (stereo in doubt; 16) | 2.2 |
| COc1ccc(C2Cc3nccn3C2)cc1 (centres undefined) | 2 |

Next, values leading:

| logD | SMILES |
| --- | --- |
| 1.9 | COc1ccccc1C1Cc2nccn2C1 (centres undefined) |
| 2.6 | Clc1ccccc1C1Cc2nccn2C1 (centres undefined) |
| 1.3 | N#Cc1ccccc1C1Cc2nccn2C1 (centres undefined) |

Biological target: T5, Alpha-1B adrenergic receptor (Homo sapiens, UniProt P35368)
T5 sequence (P35368 whole entry): T1 sequence (whole entry)
Assay: Agonist activity at human cloned adrenergic Alpha-1B receptor expressed in CHO cells assessed as calcium mobilization by FLIPR
Format: functional, cell-based
Conditions: not given

| SMILES | EC50 [µM] |
| --- | --- |
| COc1ccc(C2CCc3nc[nH]c3C2)cc1 (centres undefined) | > 10 |
| COc1cccc(C2Cc3nccn3C2)c1 (centres undefined) | > 10 |
| COCc1ccccc1C1CCc2nc[nH]c2C1 (stereo in doubt; 16) | > 10 |

Next, values leading:

| EC50 [µM] | SMILES |
| --- | --- |
| 1.1 | Clc1ccccc1C1Cc2nccn2C1 (centres undefined) |
| > 10 | N#Cc1ccccc1C1Cc2nccn2C1 (centres undefined) |

Test system: not listed separately
Assay: Membrane permeability by PAMPA assay
Format: ADME
Conditions: read-out: Papp

| SMILES | Papp [nm/s] |
| --- | --- |
| COc1cccc(C2Cc3nccn3C2)c1 (centres undefined) | 470 |
| COCc1ccccc1C1CCc2nc[nH]c2C1 (stereo in doubt; 16) | 410 |
| COc1ccc(C2Cc3nccn3C2)cc1 (centres undefined) | 570 |

Next, values leading:

| Papp [nm/s] | SMILES |
| --- | --- |
| 570 | COc1ccccc1C1Cc2nccn2C1 (centres undefined) |
| 510 | Clc1ccccc1C1Cc2nccn2C1 (centres undefined) |
| 230 | N#Cc1ccccc1C1Cc2nccn2C1 (centres undefined) |

From ChEMBL document CHEMBL1136872, “Potent and selective alpha1A adrenoceptor partial agonists--novel imidazole frameworks” (Bioorg Med Chem Lett, 2009)
